Source: patent US4169197A, “6-Deoxyneamines aminoglycoside compounds” (The Upjohn Company, priority 1978, dated 1979)
≈ marks a conversion by molar mass, not a printed value. Where two headings read alike, the source gives them in different places.

How the values were obtained:
Type in all cases: cell-based
B. cereus UC 3145 = experiment: standard disc plate assay, zones of inhibition; conditions: Bacillus cereus, 12.5 mm paper discs
Text: (§1) The compounds of formulas (V, VII, IX, XI, XIV, XVI, and XIX) are active as antibacterials and can be used in various environments to erradicate or control susceptible microorganisms. Tables I and II set forth the in vitro antibacterial test results for representative compounds of the present invention. The results were obtained with a standard disc plate assay using 12.5 mm paper discs.

B. subtilis UC 564 = experiment: standard disc plate assay, zones of inhibition; conditions: Bacillus subtilis, UC564, 12.5 mm paper discs, read-out: Zones of Inhibition; for zone of inhibition at 100 µg/mL: 0.1 mg/ml; for zone of inhibition at 1000 µg/mL: 1 mg/ml
Text: as §1

E. coli UC 51 = experiment: standard disc plate assay, zones of inhibition; conditions: Escherichia coli, UC51, 12.5 mm paper discs, read-out: Zones of Inhibition; for zone of inhibition at 100 µg/mL: 0.1 mg/ml; for zone of inhibition at 1000 µg/mL: 1 mg/ml
Text: as §1

K. pneumoniae UC 57 = experiment: standard disc plate assay, zones of inhibition; conditions: Klebsiella pneumoniae, UC57, 12.5 mm paper discs, read-out: Zones of Inhibition; for zone of inhibition at 100 µg/mL: 0.1 mg/ml; for zone of inhibition at 1000 µg/mL: 1 mg/ml
Text: as §1

P. vulgaris UC 93 [1] = experiment: standard disc plate assay, zones of inhibition; conditions: Proteus vulgaris, UC93, 1 mg/ml, 12.5 mm paper discs, read-out: Zones of Inhibition
Text: as §1

Ps. aeruginosa UC 95 [2] = experiment: standard disc plate assay, zones of inhibition; conditions: Pseudomonas aeruginosa, UC95; 1 mg/ml; 12.5 mm paper discs; Table II; read-out: Zones of Inhibition
Text: as §1

S. aureus UC 80 = experiment: standard disc plate assay, zones of inhibition; conditions: Staphylococcus aureus, 12.5 mm paper discs; for zone of inhibition at 100 µg/mL: 0.1 mg/ml
Text: as §1

S. gallinarum UC 265 = experiment: standard disc plate assay, zones of inhibition; conditions: Salmonella enterica, 12.5 mm paper discs, read-out: Zones of Inhibition; for zone of inhibition at 100 µg/mL: 0.1 mg/ml; for zone of inhibition at 1000 µg/mL: 1 mg/ml
Text: as §1

S. lutea UC 130 = experiment: standard disc plate assay, zones of inhibition; conditions: Micrococcus luteus, UC130, 1 mg/ml, 12.5 mm paper discs, read-out: Zones of Inhibition
Text: as §1

S. schottmuelleri UC 126 [3] = experiment: standard disc plate assay, zones of inhibition; conditions: 1 mg/ml, 12.5 mm paper discs
Text: as §1

E. coli UC 311 = experiment: standard microplate test in BHI Agar; conditions: Escherichia coli, UC311; BHI Agar, 37°, 20 hours; Table IV; read-out: Minimal Inhibitory Concentration
Protocol: (§2) The compounds VII, XI, XVβ, XVα and XVI were tested in a standard microplate test in BHI (Brain Heart Infusion) Agar at a concentration of 1 mg./ml. and dilutions thereof at 37° incubation temperature. The end points are read out 20 hours. BHI Agar is supplied by Difco Laboratories, Detroit, Mich.

K. pneumoniae UC 58 = experiment: standard microplate test in BHI Agar; conditions: Klebsiella pneumoniae, read-out: Minimal Inhibitory Concentration
Protocol: as §2

P. mirabilis UC 6671 = experiment: standard microplate test in BHI Agar; conditions: Proteus mirabilis, UC6671; BHI Agar, 37°, 20 hours; Table IV; read-out: Minimal Inhibitory Concentration
Protocol: as §2

P. morganii UC 3186 = experiment: standard microplate test in BHI Agar; conditions: Morganella morganii, read-out: Minimal Inhibitory Concentration
Protocol: as §2

P. rettgeri UC 339 = experiment: standard microplate test in BHI Agar; conditions: Providencia rettgeri, UC339; BHI Agar, 37°, 20 hours; Table IV; read-out: Minimal Inhibitory Concentration
Protocol: as §2

P. vulgaris UC 93 [4] = experiment: standard microplate test in BHI Agar; conditions: Proteus vulgaris, UC93; BHI Agar, 37°, 20 hours; Table IV; read-out: Minimal Inhibitory Concentration
Protocol: as §2

Ps. aeruginosa UC 95 [5] = experiment: standard microplate test in BHI Agar; conditions: Pseudomonas aeruginosa, UC95; BHI Agar, 37°, 20 hours; Table IV; read-out: Minimal Inhibitory Concentration
Protocol: as §2

S. aureus UC 76 = experiment: standard microplate test in BHI Agar; conditions: Staphylococcus aureus, read-out: Minimal Inhibitory Concentration
Protocol: as §2

S. faecalis UC 694 = experiment: standard microplate test in BHI Agar; conditions: Enterococcus faecalis, UC694, 20 h, read-out: Minimal Inhibitory Concentration
Protocol: as §2

S. flexneri UC 143 = experiment: standard microplate test in BHI Agar; conditions: Shigella flexneri, UC143, 37°, 20 hours, Table IV, read-out: Minimal Inhibitory Concentration
Protocol: as §2

S. marcescens UC 131 = experiment: standard microplate test in BHI Agar; conditions: Serratia marcescens, UC131; BHI Agar, 37°, 20 hours; Table IV; read-out: Minimal Inhibitory Concentration
Protocol: as §2

S. pneumoniae I UC 41 = experiment: standard microplate test in BHI Agar; conditions: Streptococcus pneumoniae, read-out: Minimal Inhibitory Concentration
Protocol: as §2

S. pyogenes UC 152 = experiment: standard microplate test in BHI Agar; conditions: Streptococcus pyogenes, read-out: Minimal Inhibitory Concentration
Protocol: as §2

S. schottmuelleri UC 126 [6] = experiment: standard microplate test in BHI Agar; conditions: 37°, 20 hours, Table IV, read-out: Minimal Inhibitory Concentration
Protocol: as §2

S. typhi UC 215 = experiment: standard microplate test in BHI Agar; conditions: Salmonella enterica, 20 h, read-out: Minimal Inhibitory Concentration
Protocol: as §2

SMILES	zone of inhibition at 100 µg/mL (B. subtilis UC 564; Table I)	zone of inhibition at 1000 µg/mL (B. subtilis UC 564; Table I)	zone of inhibition at 1000 µg/mL (E. coli UC 51; Table I)	zone of inhibition at 1000 µg/mL (K. pneumoniae UC 57; Table I)	zone of inhibition at 1000 µg/mL (P. vulgaris UC 93 [1]; Table I)	zone of inhibition at 1000 µg/mL (S. gallinarum UC 265; Table I)	zone of inhibition at 1000 µg/mL (S. schottmuelleri UC 126 [3]; Table I)	MIC (E. coli UC 311)	MIC (P. mirabilis UC 6671)	MIC (P. rettgeri UC 339)	MIC (P. vulgaris UC 93 [4])	MIC (Ps. aeruginosa UC 95 [5])	MIC (S. faecalis UC 694)	MIC (S. flexneri UC 143)	MIC (S. marcescens UC 131)	MIC (S. schottmuelleri UC 126 [6])	MIC (S. typhi UC 215)	further results
NC[C@H]1O[C@H](O[C@@H]2[C@@H](N)C[C@@H](N)C[C@@H]2O)[C@H](N)[C@@H](O)[C@@H]1O [6-Deoxy-5-epineamine (XI), 6-deoxy-5-epineamine]	–	–	–	–	–	–	–	–	–	–	–	–	–	–	–	–	–	zone of inhibition at 1000 µg/mL (B. cereus UC 3145; UC3145, 1 mg/ml, Table II, read-out: Zones of Inhibition): 22 mm; zone of inhibition at 100 µg/mL (B. subtilis UC 564; Table II): 26 mm; zone of inhibition at 1000 µg/mL (B. subtilis UC 564; Table II): 35 mm; zone of inhibition at 100 µg/mL (E. coli UC 51; Table II): 16 mm; zone of inhibition at 1000 µg/mL (E. coli UC 51; Table II): 24 mm; zone of inhibition at 100 µg/mL (K. pneumoniae UC 57; Table II): 23 mm; zone of inhibition at 1000 µg/mL (K. pneumoniae UC 57; Table II): 30 mm; zone of inhibition at 1000 µg/mL (P. vulgaris UC 93 [1]; Table II): 24 mm; zone of inhibition at 1000 µg/mL (Ps. aeruginosa UC 95 [2]): 17 mm; zone of inhibition at 100 µg/mL (S. aureus UC 80; UC80, Table II, read-out: Zones of Inhibition): 17 mm; zone of inhibition at 1000 µg/mL (S. aureus UC 80; UC80, 1 mg/ml, Table II, read-out: Zones of Inhibition): 24 mm; zone of inhibition at 100 µg/mL (S. gallinarum UC 265; Table II): 18 mm; zone of inhibition at 1000 µg/mL (S. gallinarum UC 265; Table II): 27 mm; zone of inhibition at 1000 µg/mL (S. lutea UC 130; Table II): 17 mm; zone of inhibition at 1000 µg/mL (S. schottmuelleri UC 126 [3]; Table II): 21 mm
NC[C@H]1O[C@H](O[C@@H]2[C@@H](N)C[C@@H](N)C[C@H]2O[C@@H]2C[C@@H](N)[C@H](O)[C@@H](CO)O2)[C@H](N)[C@@H](O)[C@@H]1O [Compound XVI, O-2,6-diamino-2,6-dideoxy-α-D-glucopyranosyl (1→4)-O-[3-amino-2,3-dideoxy-α-D-arabinohexopyranosyl(1→5)]-2,6-dideoxy-D-streptamine]	25 mm	34 mm	19 mm	24 mm	18 mm	20 mm	15 mm	> 500 µg/mL	> 500 µg/mL	> 500 µg/mL	> 500 µg/mL	> 500 µg/mL	> 500 µg/mL	> 500 µg/mL	> 500 µg/mL	> 500 µg/mL	> 500 µg/mL	zone of inhibition at 1000 µg/mL (B. cereus UC 3145; UC3145, 1 mg/ml, Table I, read-out: Zones of Inhibition): 18 mm; zone of inhibition at 1000 µg/mL (S. aureus UC 80; UC80, read-out: Zones of Inhibition, 1 mg/ml, Table I): 21 mm; MIC (K. pneumoniae UC 58; UC58, BHI Agar, 37°, 20 hours, Table IV): 125 µg/mL (≈ 277 µM); MIC (P. morganii UC 3186; UC3186, BHI Agar, 37°, 20 hours, Table IV): 250 µg/mL (≈ 554 µM); MIC (S. aureus UC 76; UC76, BHI Agar, 37°, 20 hours, Table IV): 250 µg/mL (≈ 554 µM); MIC (S. pneumoniae I UC 41; UC41, BHI Agar, 37°, 20 hours, Table IV (printed D. pneumoniae UC 41)): > 500 µg/mL; MIC (S. pyogenes UC 152; UC152, BHI Agar, 37°, 20 hours, Table IV): 250 µg/mL (≈ 554 µM)
NC[C@H]1O[C@H](O[C@@H]2[C@@H](N)C[C@@H](N)C[C@H]2O[C@H]2O[C@H](CO)[C@@H](O)[C@H]2O)[C@H](N)[C@@H](O)[C@@H]1O [Compound XVα, O-2,6-diamino-2,6-dideoxy-α-D-glucopyranosyl (1→4)-O-[α-D-ribofuranosyl(1→5)]-2,6-dieoxy-D-streptamine]	25 mm	34 mm	24 mm	31 mm	23 mm	26 mm	20 mm	250 µg/mL (≈ 570 µM)	> 500 µg/mL	> 500 µg/mL	500 µg/mL (≈ 1140 µM)	> 500 µg/mL	> 500 µg/mL	500 µg/mL (≈ 1140 µM)	500 µg/mL (≈ 1140 µM)	125 µg/mL (≈ 285 µM)	62.5 µg/mL (≈ 143 µM)	zone of inhibition at 1000 µg/mL (B. cereus UC 3145; UC3145, read-out: Zones of Inhibition, 1 mg/ml, Table I): 20 mm; zone of inhibition at 100 µg/mL (E. coli UC 51; Table I): 17 mm; zone of inhibition at 100 µg/mL (K. pneumoniae UC 57; Table I): 23 mm; zone of inhibition at 100 µg/mL (S. aureus UC 80; UC80, Table I, read-out: Zones of Inhibition): 17 mm; zone of inhibition at 1000 µg/mL (S. aureus UC 80; UC80, 1 mg/ml, Table I, read-out: Zones of Inhibition): 25 mm; zone of inhibition at 100 µg/mL (S. gallinarum UC 265; Table I): 17 mm; zone of inhibition at 1000 µg/mL (S. lutea UC 130; Table I): 16 mm; MIC (K. pneumoniae UC 58; UC58, 20 h): 15.6 µg/mL (≈ 35.6 µM); MIC (P. morganii UC 3186; UC3186, 20 h): 125 µg/mL (≈ 285 µM); MIC (S. aureus UC 76; UC76, 20 h): 125 µg/mL (≈ 285 µM); MIC (S. pneumoniae I UC 41; UC41, 20 h): 125 µg/mL (≈ 285 µM); MIC (S. pyogenes UC 152; UC152, 20 h): 31.2 µg/mL (≈ 71.2 µM)
